Measured values reported in US20260167972A1, “AMINO ACID DERIVATIVES AS NOVEL DELIVERY AGENTS FOR FUNCTIONAL DELIVERY OF OLIGONUCLEOTIDES” (University of Rochester, priority 2022, published 2026).
“And” between values parts separate entries of the source, which are not always exact repeats. Equal values may be shown once.

Tested on: A549 cells
Assay: MTT cytotoxicity assay
Assay type: cell-based, human
Conditions: normalized to naïve control, ± SEM
Protocol: A549 cells were dosed with 100 µM of these derivatives for 4 h (FIG. 7A), 24 h (FIG. 7B), and 48 h (FIG. 7C). FIG. 7 reports cell viability as percent viability of A549 cells normalized to naïve control. (A) Cell viability after 4 h dosing (n=3, *p≤0.05, **p≤0.01). (B) Cell viability after 24 h dosing (n=3, *p≤0.05, **p≤0.01). (C) Cell viability after 48 h dosing (n=3, *p≤0.05, **p≤0.01, ****p≤0.0001). […] An MTT assay was performed after dosing for 4 h, 24 h, 48 h, or 4 h with media change and additional 48 h incubation. Average values are reported with calculated standard error of the mean (SEM).
The cells will also recover after exposure to N-X-Phe-DAP derivatives under conditions that resemble knockdown experiments. Cells were dosed with N-X-Phe-DAP derivatives or Lipofectamine for 4 hours, after which the media was aspirated and replaced with DMEM cell culture media and incubated for an additional 48 hours (FIG. 8). This protocol mimics the gene knockdown experiments and acts as a better indication of how cytotoxicity may impact gene silencing measurements.
Sample Preparation for Cell-Based Experiments: For delivery analysis and functional knockdown, N-X-Phe-DAP derivatives (10 μL, 1 mM) or Lipofectamine 3000 (6 μL) was mixed with TTF-1 siRNA (Santa Cruz Biotechnology sc-36756, 6 μL, 10 μM) in Ultrapure™ DNase/RNase-Free Distilled Water (Invitrogen 10977015) to give a final volume of 100 μL. These mixtures were incubated for 30 minutes at room temperature, followed by dilution into 1×DMEM (Gibco 11965092, 1.9 mL). For cytotoxicity assays, N-X-Phe-DAP derivatives (10 μL, 1 mM) were diluted into 1×DMEM (Gibco 11965092, 1.9 mL).
MTT Cytotoxicity Assay: All cytotoxicity assays were performed in triplicate. A549 cells were seeded at a density of 2400 cells/well in a 96-well plate (200 μL) and grown to 70-90% confluency. Cells were washed with 1×PBS (200 μL), N-X-Phe-DAP derivatives were added (200 μL/well), and incubated 4 h, 24 h, or 48 h at 37° C., 5% CO2 or for 4 h at 37° C., 5% CO2 followed by washing with 1×PBS and addition of complete media containing 1×DMEM (Gibco 11965092), 10% fetal bovine serum (FBS, Invitrogen 26140087), and 1× antibiotic-antimycotic (Gibco 15240-062). A solution of thiazoyl blue tetrazolium bromide (MTT, 1 mg/mL) was prepared in 1×DMEM devoid of phenol red (Invitrogen 31053028). After the appropriate incubation time, cells were washed with 1×PBS, dosed with MTT (200 μL), and incubated an additional 1 h at 37° C., 5% C02 in the dark. The 96-well plate was centrifuged for 5 min at 4000 rpm, the media was aspirated, and DMSO (100 μL) was added to the wells. Absorbance measurements (550 nm) were taken on a Tecan Infinite M1000 Pro plate reader. Cell viability was then calculated and normalized to the naïve control.

SMILES: NCCCNC(=O)[C@H](Cc1ccccc1)NC(=O)CCCc1ccc2ccc3cccc4ccc1c2c34 [Pyr-Phe-DAP]
- Cell Viability (%) 4 h Dosing: 17.2 ± 1.1%
- Cell Viability (%) 24 h Dosing: 2.6 ± 0.8%
- Cell Viability (%) Media Change After 4 h Followed by 48 h Incubation: 22.3 ± 2.7%
- Cell Viability (%) 4 h Dosing (listed as Fmoc-Pyr-DAP): less than 20%
- Cell Viability (%) 24 h Dosing (listed as Fmoc-Pyr-DAP): < 3%

SMILES: CCCCCCC(=O)N[C@@H](Cc1ccccc1)C(=O)NCCCN [Hex-Phe-DAP]
- Cell Viability (%) 4 h Dosing: 38.9 ± 3.7%
- Cell Viability (%) 24 h Dosing: 66.0 ± 5.5%
- Cell Viability (%) 48 h Dosing: 52.1 ± 4.5%
- Cell Viability (%) Media Change After 4 h Followed by 48 h Incubation: 53% and 53.1 ± 4.5%

SMILES: NCCCNC(=O)[C@H](Cc1c(F)c(F)c(F)c(F)c1F)NC(=O)OCC1c2ccccc2-c2ccccc21 [Fmoc-F5-Phe-DAP]
- Cell Viability (%) 4 h Dosing: 48.1 ± 5.9%
- Cell Viability (%) Media Change After 4 h Followed by 48 h Incubation: 54.2 ± 6.2%

SMILES: NCCCNC(=O)[C@H](Cc1cccc(F)c1)NC(=O)OCC1c2ccccc2-c2ccccc21 [Fmoc-3F-Phe-DAP]
- Cell Viability (%) 4 h Dosing: 59.9 ± 3.8%
- Cell Viability (%) 24 h Dosing: 75.3 ± 5.0%
- Cell Viability (%) 48 h Dosing: 42.0 ± 2.4%
- Cell Viability (%) Media Change After 4 h Followed by 48 h Incubation: 71.1 ± 6.3%

SMILES: NCCCNC(=O)[C@H](Cc1ccccc1)NC(=O)OCc1ccccc1 [Cbz-Phe-DAP]
- Cell Viability (%) 4 h Dosing: 60.8 ± 3.8%
- Cell Viability (%) 24 h Dosing: 69.8 ± 8.2%
- Cell Viability (%) 48 h Dosing: 53.7 ± 3.0%
- Cell Viability (%) Media Change After 4 h Followed by 48 h Incubation: 50.2 ± 3.4%

SMILES: NCCCNC(=O)[C@H](Cc1ccccc1)NC(=O)Cc1cccc2ccccc12 [1-Nap-Phe-DAP]
- Cell Viability (%) 4 h Dosing: 65.3 ± 3.7%
- Cell Viability (%) 24 h Dosing: 69.5 ± 5.9%
- Cell Viability (%) 48 h Dosing: 45.1 ± 3.1%
- Cell Viability (%) Media Change After 4 h Followed by 48 h Incubation: 56.5 ± 1.1%

SMILES: NCCCNC(=O)[C@H](Cc1ccccc1)NC(=O)CC1c2ccccc2-c2ccccc21 [Fm-Phe-DAP]
- Cell Viability (%) 4 h Dosing: 60.7 ± 3.6%
- Cell Viability (%) 24 h Dosing: 51.7 ± 4.4%
- Cell Viability (%) 48 h Dosing: 26.7 ± 4.0%
- Cell Viability (%) Media Change After 4 h Followed by 48 h Incubation: 72.6 ± 7.4%

SMILES: NCCCNC(=O)[C@H](Cc1ccccc1)NC(=O)C1CCCCC1 [Cyc-Phe-DAP]
- Cell Viability (%) 4 h Dosing: 58.3 ± 9.2%
- Cell Viability (%) 24 h Dosing: 59.6 ± 4.9%
- Cell Viability (%) 48 h Dosing: 60.4 ± 2.6%
- Cell Viability (%) Media Change After 4 h Followed by 48 h Incubation: 67% and 66.5 ± 5.1%

SMILES: NCCCNC(=O)[C@H](Cc1ccccc1)NC(=O)Cc1ccc2ccccc2c1 [2-Nap-Phe-DAP]
- Cell Viability (%) 4 h Dosing: 50.4 ± 1.5%
- Cell Viability (%) 24 h Dosing: 58.3 ± 6.0%
- Cell Viability (%) 48 h Dosing: 44.3 ± 8.7%
- Cell Viability (%) Media Change After 4 h Followed by 48 h Incubation: 60.7 ± 1.6%

SMILES: NCCCNC(=O)[C@H](Cc1ccccc1)NC(=O)OCC1c2ccccc2-c2ccccc21 [Fmoc-Phe-DAP]
- Cell Viability (%) 4 h Dosing: 76.3 ± 2.8%
- Cell Viability (%) 24 h Dosing: 96.5 ± 3.2%
- Cell Viability (%) 48 h Dosing: 63.7 ± 5.1%
- Cell Viability (%) Media Change After 4 h Followed by 48 h Incubation: 76.1 ± 4.9%
